{"source": "patent US20140066438A1", "about": "“DOPAMINE RECEPTOR D2 ANTAGONIST FOR PREVENTION AND TREATMENT OF FLAVIVIRUS INFECTION” (Academia Sinica, priority 2012, published 2014)", "key": {"[1]": {"test_system": "DENV-2", "experiment": "Virus entry assay (confocal microscopy, plaque-forming assay of internalized virus)", "assay_type": "cell-based, Dengue virus serotype 2", "method": "Solvent control or PCZ (15 and 20 μM) was added 15 min before the end of virus adsorption. After a washing with PBS, cells were then shifted to 37° C. for an additional 1 h incubation. Live-cell staining was performed before cell fixation to label the cell membrane with CellMask (red) and nuclei with Hoechst (blue). […] (B) Plaque-forming assay of internalized DENV-2. […] After a washing with PBS, cells were shifted to 37° C. for an additional 1 h. Cells were physically destroyed to release the internalized DENV-2 and internalized virus was quantified by plaque-forming assays.\nAt 15 min before the end of virus adsorption, PCZ was added to the cell cultures. Cells were gently washed once with cold PBS, then were shifted to a 37° C. CO2 incubator for an additional 1 h to allow virus entry with or without PCZ. […] Cells were washed 3 times with cold washing buffer and once with cold PBS, then were fixed with 4% PFA for 10 min on ice. […] Level of virus titers was determined by plaque-forming assay."}, "[2]": {"test_system": "DENV-2 NGC-N strain", "experiment": "Animal study: DENV-2 challenge of Stat1-deficient mice", "assay_type": "in vivo", "details": "oral administration at 5 μg/gram body weight daily", "method": "Stat1^−/− mice were challenged with 5×10^4 PFU/mouse of DENV-2 NGC-N strain. The protective effect of PCZ dimaleate (A) and PCZ dimethanesulfonate (Novamin Injection) (B) were tested with immediate and 6-h delay treatment. (A) The mice received phosphate buffered saline (PBS; vehicle control, n=10), 5 mg (n=8) or 1 mg (n=8) PCZ-dimaleate/kg body weight/i.p. at the time of infection (immediate treatment), or 5 mg PCZ-dimaleate/kg body weight/i.p. at 6 h post-infection (6-h delay treatment, n=8). Mice received follow-up treatment with PBS (vehicle control) or half the dose of PCZ-dimaleate orally every 12 h until day-10 post infection. […] The days with treatment are marked by arrows. Mice survival was checked daily and the data are presented as percentage of survival.\nThe mouse experiments were approved and performed in accordance with the guidelines of the Academia Sinica Institutional Animal Care and Utilization Committee. Groups of 5-week-old Stat1-deficient (SaT1^−/−) mice were challenged intraperitoneally (i.p.) with 5×10^4 plaque-forming units (PFU)/mouse of DENV-2 NGC-N strain and simultaneously injected with 30 μl PBS intracranially (i.c.) into the right hemisphere of the brain. To study the efficacy of PCZ-dimaleate administered mainly by an oral route, mice were divided into 4 groups for treatment: PBS (vehicle control); 5 or 1 mg of PCZ/kg body weight/i.p. at the time of infection (immediate treatment); or 5 mg of PCZ/kg body weight/i.p. at 6 h post-infection (6-h delay treatment). Thereafter, twice a day, mice received a half dose of the first treatment orally with PBS (vehicle control) or 2.5 or 0.5 mg of PCZ/kg body weight/oral/12 h up to day 10 post-infection. […] Thereafter, every 2 days, mice received PBS or the same dose of PCZ up to day 10 post-infection. The mice were checked daily for mortality."}, "[3]": {"test_system": "HCV", "details": "cell-based screening; cited from earlier work"}, "[4]": {"test_system": "clathrin", "experiment": "Clathrin distribution during viral entry assay (confocal imaging)", "assay_type": "cell-based, human", "details": "HEK293 cells, PCZ 20 and 30 μM, compared to solvent-treated cells", "method": "Cells were fixed with 4% PFA and permeabilized with 0.5% Triton X-100 in PBS. After a blocking with 5% skim milk in PBS, DENV protein expression was detected in cells incubated with mouse anti-DENV-2 NS3 antibody (49), then Alexa Fluor-488-conjugated anti-mouse secondary antibody (Molecular Probes) for 1 h at room temperature. The nuclei were stained with DAPI or Hoechst (Molecular Probes). Cells were examined under an inverted fluorescence microscope (Olympus 1X71). For confocal microcopy, cells were seeded on coverslips in 24-well culture plates. After virus absorption and treatment, cells were extensively washed with cold washing buffer and PBS, then fixed with cold 4% PFA. Cells were washed twice with cold 10 mM glycine solution, then PBS. For clathrin staining, cells were permeabilized with 0.5% Triton X-100 in PBS and blocked with 5% BSA in PBS. Cells were stained with mouse anti-clathrin heavy chain (X22) (Pierce, MA1-065), then anti-mouse Alexa Fluor-568-conjugated secondary antibody (Molecular Probes). The coverslip was mounted onto a slide and examined under confocal laser scanning microscope (ZEISS LSM 700)."}, "[5]": {"details": "mice, cited from earlier work"}, "[6]": {"test_system": "DENV-2 replicon", "experiment": "DENV-2 replicon dual luciferase assay", "assay_type": "cell-based, Dengue virus serotype 2", "details": "HEK293T, PCZ 10 μM applied 5 h post-transfection", "method": "DENV-2 replicon was constructed to contain the SP6 promoter upstream of a Renilla luciferase gene flanked by the DENV 5′ UTR plus a portion of the core gene in the 5′ end; portions of the envelope gene, full length of non-structural genes and 3′ UTR in the 3′ end. In vitro transcription was performed to generate the replicon RNA. HEK293T cells were co-transfected with replicon RNA and control firefly luciferase RNA. PCZ (10 μM) was applied to the transfected cells at 5 h post-transfection. Cells were then harvested at the indicated times for dual luciferase assays. Data are mean and SD of relative renilla luciferase to firefly luciferase from two independent experiments."}, "[7]": {"test_system": "DENV-2", "experiment": "Virus binding assay (confocal microscopy, plaque-forming assay of cell-bound virus)"}}, "note": "Like-named read-outs stand apart in the source and are kept apart here."}
{"smiles": "CN1CCN(CCCN2c3ccccc3Sc3ccc(Cl)cc32)CC1", "note": "[PCZ, prochlorperazine]", "values": [{"measurement": "levels of DENV-2 internalization quantified by plaque forming assay", "setting": "[1]; BHK-21 cells, MOI=5", "result": "significantly reduced"}, {"measurement": "amounts of DENV-2 in the intracellular compartment (confocal microscopy)", "setting": "[1]; HEK293T, PCZ 15 and 20 μM, 1 h at 37° C.", "result": "greatly reduced"}, {"measurement": "protection of DENV-2 challenge mice", "setting": "[2]", "result": "completely protected"}, {"measurement": "anti-HCV activity", "setting": "[3]", "result": "showed anti-HCV activity"}, {"measurement": "cellular clathrin distribution", "setting": "[4]", "result": "showed a distinct clathrin distribution"}, {"measurement": "LD50", "setting": "[5]; i.p. injection", "result": 191, "unit": "mg/kg body weight"}, {"measurement": "LD50", "setting": "[5]; oral route", "result": 400, "unit": "mg/kg body weight"}, {"measurement": "relative renilla luciferase to firefly luciferase (DENV-2 translation and RNA replication)", "setting": "[6]", "result": "No significant difference"}, {"measurement": "DENV-2 binding quantified by plaque forming assay", "setting": "[7]; A549 cells, MOI=5", "result": "dose-dependently reduced"}, {"measurement": "levels of DENV-2 bound to the cell surface (confocal imaging)", "setting": "[7]; HEK293T, PCZ 1 h before and during virus adsorption at 4° C.", "result": "reduced the levels of DENV-2 bound to the cell surface"}]}
